Experimental data: US7700584B2 (Hangzhou Minsheng Pharmaceuticals Co., Ltd., priority 2004, dated 2010)

Assays:
Format in all cases: cell-based
Conditions in all cases: 50 μg/ml
[1] = test system: A-549 human lung adenocarcinoma; experiment: In vitro inhibition rate to tumor cells (MTT), A-549
Experimental: (§1) (1) Single cell suspension was seeded into 96-well plates (×3) (the cells was diluted in the PRMI-1640 minimum medium to 3×10^4 cells/ml, […] diluted cells/well). […] The experiments were performed in quadruplicate.
(§2) (2) The medium was removed. Solutions of the anti-tumor agents (15 compounds) were prepared in a freshly prepared medium at the concentrations indicated in the following Table. […] of the solution was added into each well. Incubation was continued for 48 hours.
(§3) (3) […] of 2 mg/ml MTT was added into each well, and incubated for 4 hours.
(§4) (4) The medium was removed from the well. The microplates were swiftly turned down to throw-off the medium. […] DMSO was added into each well, and vortexed at room temperature for 10 minutes.
(§5) (5) OD value (λ=570 nm) was measured with an Enzyme-Linked Detector.
(§6) (6) The inhibition rates (IR) of cell growth were respectively calculated based on the following equation: IR(%)=[1−(average OD of the experimental group/average OD of the control group)]×100%

[2] = test system: SMMC-7721 human hepatic carcinoma; experiment: In vitro inhibition rate to tumor cells (MTT), SMMC-7721
Experimental: as §1, §2, §3, §4, §5, §6

[3] = test system: Bel-7402 human hepatic carcinoma; experiment: In vitro inhibition rate to tumor cells (MTT), Bel-7402
Experimental: as §1, §2, §3, §4, §5, §6

[4] = test system: MCF-7 human mammary adenocarcinoma; experiment: In vitro inhibition rate to tumor cells (MTT), MCF-7
Experimental: as §1, §2, §3, §4, §5, §6

[5] = test system: U-937 human histocytic lymphoma; experiment: In vitro inhibition rate to tumor cells (MTT), U-937
Experimental: as §1, §2, §3, §4, §5, §6

[6] = test system: Hela human cervical carcinoma; experiment: In vitro inhibition rate to tumor cells (MTT), Hela
Experimental: as §1, §2, §3, §4, §5, §6

[7] = test system: LLC mouse Lewis lung carcinoma; experiment: In vitro inhibition rate to tumor cells (MTT), LLC
Experimental: as §1, §2, §3, §4, §5, §6

[8] = test system: HL-60 human promyelocytic leukemia; experiment: In vitro inhibition rate to tumor cells (MTT), HL-60
Experimental: as §1, §2, §3, §4, §5, §6

Structure (SMILES)	inhibition rate, Results (%) A-549 ([1]; Table 1) [%]	inhibition rate, Results (%) A-549 ([1]; Table 2 (repeated screening)) [%]	inhibition rate, Results (%) SMMC-7721 ([2]; Table 1) [%]	inhibition rate, Results (%) SMMC-7721 ([2]; Table 2 (repeated screening)) [%]	inhibition rate, Results (%) Bel-7402 ([3]; Table 1) [%]	inhibition rate, Results (%) Bel-7402 ([3]; Table 2 (repeated screening)) [%]	inhibition rate, Results (%) MCF-7 ([4]; Table 1) [%]	inhibition rate, Results (%) MCF-7 ([4]; Table 2 (repeated screening)) [%]	inhibition rate, Results (%) U-937 ([5]; Table 1) [%]	inhibition rate, Results (%) U-937 ([5]; Table 2 (repeated screening)) [%]	inhibition rate, Results (%) Hela ([6]; Table 1) [%]	inhibition rate, Results (%) Hela ([6]; Table 2 (repeated screening)) [%]	inhibition rate, Results (%) LLC ([7]; Table 1) [%]	inhibition rate, Results (%) LLC ([7]; Table 2 (repeated screening)) [%]	inhibition rate, Results (%) HL-60 ([8]; Table 1) [%]	inhibition rate, Results (%) HL-60 ([8]; Table 2 (repeated screening)) [%]
CCCCNC=C1CC2(OC)OC3(CC2C(C)C)C(C)CCC13.Cl (centres unmarked) [Compound 28, Curcumol methyl ether n-butyl amine hydrochloride]	1.23	2.31	−3.78	−1.02	−2.24	−0.45	32.15	19.98	59.32	51.23	58.75	60.45	0.24	1.23	2.98	4.32
CCOC12CC(=CO[N+](=O)[O-])C3CCC(C)C3(CC1C(C)C)O2 (centres unmarked) [Compound 29, Curcumol ethyl ether nitrate]	3.89	1.23	4.26	5.68	2.51	3.21	37.85	30.12	25.32	12.32	56.98	50.17	−10.12	−1.95	42.12	42.79
CC(C)C1CC23OC1(O)CC(Br)(CBr)C2CCC3C (centres unmarked) [Compound 30, Curcumol dibromide]	4.36	4.01	1.03	4.56	12.40	9.84	36.15	30.56	13.25	13.10	53.87	56.89	−1.83	−4.65	13.20	4.12
CC(C)C1CC23OC1(O)CC(CO[N+](=O)[O-])(O[N+](=O)[O-])C2CCC3C (centres unmarked) [Compound 31, Curcumol dinitrate]	8.65	4.82	−1.96	−4.56	0.23	8.42	16.75	14.87	−0.68	−12.61	57.98	55.49	1.13	1.25	16.50	2.78
CC(C)C1CC23OC1(O)CC(C)(Br)C2CCC3C (centres unmarked) [Compound 34, Curcumol monobromide without double bond]	2.31	9.23	−5.25	0.95	1.11	0.59	1.23	4.56	35.23	23.56	50.64	51.89	−18.52	−11.22	2.96	3.14
CC(C)C1CC23OC1(O)CC(C)(O)C2CCC3C (centres unmarked) [Compound 35, Curcumol monohydroxy compound without double bond]	3.89	2.77	5.23	4.32	3.65	6.78	3.89	9.87	7.36	0.23	59.88	64.01	8.97	8.23	3.12	3.99
CC(C)C1CC23OC1(O)CC(C)(O[N+](=O)[O-])C2CCC3C (centres unmarked) [Compound 36, Curcumol mononitrate without double bond]	9.21	1.20	15.39	14.08	0.22	0.02	−1.23	−2.31	6.98	5.32	62.13	65.23	11.56	11.56	1.03	2.01
CC(C)C1CC23OC1(O)CC(CN1CCNCC1)(N1CCNCC1)C2CCC3C (centres unmarked) [Compound 41, Curcumol bispiperazine]	−2.50	−7.89	4.42	3.12	16.78	1.23	36.45	31.28	8.65	−1.02	50.32	51.23	30.96	23.65	6.78	1.86
CC(C)C1CC23OC1(O)CC(CN1CCNCC1)(N1CCNCC1)C2CCC3C.Cl (centres unmarked) [Compound 42, Curcumol bispiperazine hydrochloride]	10.16	3.12	6.86	0.79	2.15	14.36	34.21	30.12	−12.5	−1.03	55.64	54.03	9.99	1.79	2.73	3.14
CC(C)C1CC23OC1(O)CC(C)(N1CCNCC1)C2CCC3C.Cl (centres unmarked) [Compound 44, Curcumol piperazine hydrochloride without double bond]	23.01	20.33	−10.53	−7.89	−6.54	0.23	25.55	24.11	35.64	23.56	55.14	50.01	23.35	17.565	3.71	5.37
CCCCNC1(C)CC2(OC)OC3(CC2C(C)C)C(C)CCC13 (centres unmarked) [Compound 45, Curcumol methyl ether n-butyl amine without double bond]	2.10	0.32	−10.73	−11.23	3.01	5.02	26.78	20.73	32.19	12.32	59.45	53.12	2.74	1.32	6.14	1.23
